Several values for one entry are separate records, joined by “and”; a condition that tells them apart may be missing. Equal entries are not always repeated.
What was measured:
[1] = system: CYP3A4 protein in HepG2 cells; test: CYP3A4 protein expression by Western blot in HepG2 cells; type: cell-based, human; conditions: 48 hours, vinblastine 300 ng/mL and above (range 150-4800 ng/mL)
human NR1I3 = biological target: T1, human NR1I3 (Homo sapiens, UniProt Q14994); conditions: NIH3T3 cells, 24 hours; vinblastine 150-4800 ng/mL
T1 sequence (Q14994 1-348 isoform Q14994-2): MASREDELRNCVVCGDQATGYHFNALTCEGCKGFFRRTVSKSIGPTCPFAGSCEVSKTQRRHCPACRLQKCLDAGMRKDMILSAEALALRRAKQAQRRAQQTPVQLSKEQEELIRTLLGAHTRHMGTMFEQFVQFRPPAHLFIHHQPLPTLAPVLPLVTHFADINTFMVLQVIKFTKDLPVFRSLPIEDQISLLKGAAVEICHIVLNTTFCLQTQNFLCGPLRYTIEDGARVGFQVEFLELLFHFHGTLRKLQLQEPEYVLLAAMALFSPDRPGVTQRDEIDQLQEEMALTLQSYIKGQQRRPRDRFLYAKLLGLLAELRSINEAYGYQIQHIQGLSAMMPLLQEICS
T1 sequence (P28700 1-467 partner): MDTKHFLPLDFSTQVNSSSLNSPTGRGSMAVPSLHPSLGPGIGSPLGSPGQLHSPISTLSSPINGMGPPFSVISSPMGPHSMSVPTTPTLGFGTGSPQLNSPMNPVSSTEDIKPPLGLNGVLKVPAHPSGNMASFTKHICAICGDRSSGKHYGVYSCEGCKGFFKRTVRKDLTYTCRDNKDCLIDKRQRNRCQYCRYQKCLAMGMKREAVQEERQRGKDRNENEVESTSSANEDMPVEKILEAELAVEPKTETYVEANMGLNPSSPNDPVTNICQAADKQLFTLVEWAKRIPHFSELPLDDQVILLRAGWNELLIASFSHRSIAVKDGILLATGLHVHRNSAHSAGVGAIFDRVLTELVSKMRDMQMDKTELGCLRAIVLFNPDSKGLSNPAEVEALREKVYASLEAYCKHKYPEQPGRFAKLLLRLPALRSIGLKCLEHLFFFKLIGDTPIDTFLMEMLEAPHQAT

mouse NR1I3 = biological target: T2, mouse NR1I3 (Mus musculus, UniProt O35627); conditions: NIH3T3 cells, 24 hours; vinblastine 150-4800 ng/mL
T2 sequence (O35627 1-358): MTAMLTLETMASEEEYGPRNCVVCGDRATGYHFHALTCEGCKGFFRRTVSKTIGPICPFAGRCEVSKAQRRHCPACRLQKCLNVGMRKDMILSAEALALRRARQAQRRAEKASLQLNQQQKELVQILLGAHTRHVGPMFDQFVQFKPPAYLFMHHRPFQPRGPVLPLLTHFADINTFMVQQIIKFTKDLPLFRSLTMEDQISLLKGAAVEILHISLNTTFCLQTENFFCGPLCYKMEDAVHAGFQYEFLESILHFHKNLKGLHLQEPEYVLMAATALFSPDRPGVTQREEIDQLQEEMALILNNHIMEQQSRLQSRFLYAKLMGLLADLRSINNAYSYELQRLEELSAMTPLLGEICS

mouse NR1I2 = biological target: T3, mouse NR1I2 (Mus musculus, UniProt O54915); test: Luciferase reporter gene assay, full-length mouse NR1I2; type: cell-based; conditions: HepG2 cells, 24 hours; vinblastine 150-4800 ng/mL; PCN 50 μM
T3 sequence (O54915 1-431): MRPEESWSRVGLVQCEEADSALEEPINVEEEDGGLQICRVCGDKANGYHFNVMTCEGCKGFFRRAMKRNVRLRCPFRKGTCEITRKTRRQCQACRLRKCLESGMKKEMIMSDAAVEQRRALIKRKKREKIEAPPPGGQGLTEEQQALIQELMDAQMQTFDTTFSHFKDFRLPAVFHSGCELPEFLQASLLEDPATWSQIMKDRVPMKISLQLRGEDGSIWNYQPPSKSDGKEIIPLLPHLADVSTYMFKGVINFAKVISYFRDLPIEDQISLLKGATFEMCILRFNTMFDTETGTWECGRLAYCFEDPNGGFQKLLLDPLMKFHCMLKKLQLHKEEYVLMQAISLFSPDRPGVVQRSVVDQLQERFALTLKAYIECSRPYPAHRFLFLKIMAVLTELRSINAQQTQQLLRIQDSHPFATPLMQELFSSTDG

CYP3A4 [2] = conditions: cited from earlier work
human NR1I2 = biological target: T4, human NR1I2 (Homo sapiens, UniProt O75469); conditions: HepG2 cells, 24 hours; vinblastine 150-4800 ng/mL; rifampin 10 μM
T4 sequence (O75469 1-434): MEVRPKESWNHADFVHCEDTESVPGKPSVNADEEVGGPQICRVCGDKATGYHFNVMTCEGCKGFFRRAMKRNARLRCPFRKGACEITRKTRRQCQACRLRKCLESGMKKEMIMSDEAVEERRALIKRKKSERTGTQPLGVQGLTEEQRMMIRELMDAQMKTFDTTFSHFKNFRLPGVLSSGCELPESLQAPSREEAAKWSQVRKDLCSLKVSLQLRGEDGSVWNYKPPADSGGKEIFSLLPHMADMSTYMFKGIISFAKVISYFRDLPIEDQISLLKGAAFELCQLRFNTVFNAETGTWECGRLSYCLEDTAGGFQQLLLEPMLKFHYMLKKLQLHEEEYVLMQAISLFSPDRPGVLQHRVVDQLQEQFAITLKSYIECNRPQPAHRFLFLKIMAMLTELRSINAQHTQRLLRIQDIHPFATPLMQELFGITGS

CYP3A4 [3] = test: Midazolam pharmacokinetics; conditions: for Midazolam AUC, median (dose normalized): 6 patients; for half-life: human, plasma, intravenous, 0.0145 mg/kg, Half-life of midazolam, median

For `CC[C@]1(O)C[C@@H]2CN(CCc3c([nH]c4ccccc34)[C@@](C(=O)OC)(c3cc4c(cc3OC)N(C)[C@H]3[C@@](O)(C(=O)OC)[C@H](OC(C)=O)[C@]5(CC)C=CCN6CC[C@]43[C@@H]65)C2)C1` [vinblastine, Vinblastine], the “CYP3A4 protein expression compared to DMSO-treated control cells” value [1] was “substantially increased CYP3A4 protein expression”.
With `C/C=C/C[C@@H](C)C(=O)[C@H]1C(=O)N[C@@H](C(C)C)C(=O)N(C)CC(=O)N(C)[C@@H](CC(C)C)C(=O)N[C@@H](C(C)C)C(=O)N(C)[C@@H](CC(C)C)C(=O)N[C@@H](C)C(=O)N[C@H](C)C(=O)N(C)[C@@H](CC(C)C)C(=O)N(C)[C@@H](CC(C)C)C(=O)N(C)[C@@H](C(C)C)C(=O)N1C` [valspodar] the “Effect on transcriptional activity of human NR1I3” value (human NR1I3) was “Increased activity of the reporter was not observed”, the “Effect on transcriptional activity of mouse NR1I3” value (mouse NR1I3) was “Increased activity of the reporter was not observed” and the “Increase in transcriptional (reporter) activity of mouse NR1I2” value (mouse NR1I2) was “Increased activity of the reporter was not observed”. For the same molecule, the CYP3A4 inhibition (CYP3A4 [2]) was “very weak CYP3A4 inhibitor” and the “Increase in transcriptional (reporter) activity of human NR1I2” value (human NR1I2) was “Increased activity of the reporter was not observed”.
With `Cc1ncc2n1-c1ccc(Cl)cc1C(c1ccccc1F)=NC2` [midazolam] the “Midazolam AUC, median (dose normalized)” value (CYP3A4 [3]; day 1 of cycle 1) was 46.4 ng·h/mL per mg, the “Midazolam AUC, median (dose normalized)” value (CYP3A4 [3]; day 1 of cycle 4, after repeat vinblastine) was 31.0 ng·h/mL per mg and the half-life (CYP3A4 [3]; day 1 of cycle 1) was 2.54 h. The half-life (CYP3A4 [3]; day 1 of cycle 4) was 3.08 h, the “% ↑ Midazolam Cl” value (CYP3A4 [3]; individual patients, cycle 4 vs cycle 1, after repeat vinblastine) was 51.7% and 35.9% and 216.7% and 2.5% and 46.9% and 6.9% and the “Midazolam clearance relative to value prior to treatment with vinblastine” value (CYP3A4 [3]; one patient, midazolam on 5 occasions over 1.3 years, end of period) was 3.6 fold.

— publication PMC3100585 (The Annals of pharmacotherapy, 2010)
